IC50 data for 26 molecules are collected here from patent US20240025884A1 (Dong-A ST Co., Ltd., priority 2022, published 2024).

The target in the assay is GCN2 (Homo sapiens (Human), UniProt Q9P2K8). As to the kind of experiment: GCN2 Biochemical Assay (TR-FRET, GFP-eIF2S1 substrate phosphorylation). To be noted: read-out: IC50 (GCN2 Inhibitory Activity). In outline: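 TR-FRET readout (Ex 340, Em 490/520 nm) after 2–3 h with Tb-labelled phospho-eIF2S1 antibody in stop mix, following a 70 min room-temperature kinase step. Reaction: in-house GCN2, GFP-eIF2S1, ATP, tRNA in Tris pH 7.5 (2× stocks 1.6 nM, 50 nM, 0.2 mM); compounds tested at 10 concentrations, with a phospho-substrate artifact counter-plate.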
GCN2, sequence (Q9P2K8 whole entry): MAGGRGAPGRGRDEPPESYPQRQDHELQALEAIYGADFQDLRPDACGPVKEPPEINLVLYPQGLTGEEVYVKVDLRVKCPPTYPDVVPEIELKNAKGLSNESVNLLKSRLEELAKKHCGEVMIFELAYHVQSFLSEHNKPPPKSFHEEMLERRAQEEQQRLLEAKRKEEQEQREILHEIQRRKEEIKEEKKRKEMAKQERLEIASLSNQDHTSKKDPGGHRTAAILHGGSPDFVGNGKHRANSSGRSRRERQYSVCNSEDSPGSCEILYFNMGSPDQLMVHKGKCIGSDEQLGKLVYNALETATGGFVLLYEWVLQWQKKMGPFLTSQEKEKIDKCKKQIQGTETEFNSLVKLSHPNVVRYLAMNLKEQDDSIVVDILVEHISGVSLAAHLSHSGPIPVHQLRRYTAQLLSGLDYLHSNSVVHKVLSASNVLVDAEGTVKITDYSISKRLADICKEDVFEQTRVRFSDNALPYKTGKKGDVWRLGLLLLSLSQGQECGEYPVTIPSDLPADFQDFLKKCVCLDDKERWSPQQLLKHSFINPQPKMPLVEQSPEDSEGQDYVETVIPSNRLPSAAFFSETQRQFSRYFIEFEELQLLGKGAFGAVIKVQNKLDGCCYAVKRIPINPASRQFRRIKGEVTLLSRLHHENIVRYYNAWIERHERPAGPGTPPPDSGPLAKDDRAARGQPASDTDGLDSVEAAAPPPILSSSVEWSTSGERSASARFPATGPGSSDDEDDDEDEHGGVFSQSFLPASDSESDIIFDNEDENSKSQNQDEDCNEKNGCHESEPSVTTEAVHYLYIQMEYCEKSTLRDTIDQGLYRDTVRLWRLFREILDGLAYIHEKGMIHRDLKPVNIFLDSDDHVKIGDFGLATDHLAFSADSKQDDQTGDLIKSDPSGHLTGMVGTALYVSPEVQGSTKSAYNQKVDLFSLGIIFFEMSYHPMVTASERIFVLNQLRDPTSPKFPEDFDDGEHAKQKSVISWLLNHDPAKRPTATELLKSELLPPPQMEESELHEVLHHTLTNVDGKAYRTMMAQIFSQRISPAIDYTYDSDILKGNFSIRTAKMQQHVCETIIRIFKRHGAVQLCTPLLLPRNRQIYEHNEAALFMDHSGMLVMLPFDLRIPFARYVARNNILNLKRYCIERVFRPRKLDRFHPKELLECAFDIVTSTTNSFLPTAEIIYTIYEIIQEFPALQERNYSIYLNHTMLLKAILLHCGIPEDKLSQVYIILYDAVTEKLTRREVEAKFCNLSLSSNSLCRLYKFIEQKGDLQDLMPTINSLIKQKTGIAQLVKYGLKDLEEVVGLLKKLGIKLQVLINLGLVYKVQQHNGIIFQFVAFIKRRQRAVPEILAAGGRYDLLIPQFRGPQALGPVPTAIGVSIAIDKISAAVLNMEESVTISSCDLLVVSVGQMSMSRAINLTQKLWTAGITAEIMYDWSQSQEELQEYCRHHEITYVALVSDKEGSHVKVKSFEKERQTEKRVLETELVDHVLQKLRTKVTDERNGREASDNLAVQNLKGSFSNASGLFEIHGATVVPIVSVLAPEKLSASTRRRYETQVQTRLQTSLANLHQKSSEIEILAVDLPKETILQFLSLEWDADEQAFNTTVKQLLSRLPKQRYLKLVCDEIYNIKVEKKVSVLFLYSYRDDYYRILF
Consider `Cc1cnc(Nc2cc(C)n(C)n2)nc1-c1c[nH]c2c(N3Cc4c(NC(=O)N5CCOCC5)cccc4C3=O)cccc12` [Example 296, N-(2-(3-(2-((1,5-dimethyl-1H-pyrazol-3-yl)amino)-5-methylpyrimidin-4-yl)-1H-indol-7-yl)-1-oxoisoindolin-4-yl)morpholine-4-carboxamide], for which the IC50 was under 10 nM.

In the case of `Cc1cnc(Nc2cc(C)n(C)n2)nc1-c1c[nH]c2c(N3Cc4cccnc4C3=O)cccc12` [Example 288, 6-(3-(2-((1,5-dimethyl-1H-pyrazol-3-yl)amino)-5-methylpyrimidin-4-yl)-1H-indol-7-yl)-5,6-dihydro-7H-pyrrolo[3,4-b]pyridin-7-one], the half-inhibitory concentration (IC50) is under 10 nM. Turning to `Cc1cnc(Nc2cc(C)n(C)n2)nc1-c1c[nH]c2c(N3C(=O)c4cccc(O)c4C3=O)cccc12` [Example 263, 2-(3-(2-((1,5-dimethyl-1H-pyrazol-3-yl)amino)-5-methylpyrimidin-4-yl)-1H-indol-7-yl)-4-hydroxyisoindoline-1,3-dione], the IC50 is under 10 nM. On to `Cc1cnc(Nc2cc(C)n(C)n2)nc1-c1c[nH]c2c(N3Cc4c(C5=CCNCC5)ccnc4C3=O)cccc12` [Example 496, 6-(3-(2-((1,5-dimethyl-1H-pyrazol-3-yl)amino)-5-methylpyrimidin-4-yl)-1H-indol-7-yl)-4-(1,2,3,6-tetrahydropyridin-4-yl)-5,6-dihydro-7H-pyrrolo[3,4-b]pyridin-7-one], for which the IC50 was under 10 nM.

Regarding `Cc1cnc(Nc2cc(C)n(C)n2)nc1-c1c[nH]c2c(N3Cc4cccc(N5CCOCC5)c4C3=O)cccc12` [Example 347, 2-(3-(2-((1,5-dimethyl-1H-pyrazol-3-yl)amino)-5-methylpyrimidin-4-yl)-1H-indol-7-yl)-7-morpholinoisoindolin-1-one], the half-maximal inhibitory concentration (IC50) is 10 to 100 nM. Regarding `CNC(=O)/C=C/c1cccc2c1CN(c1cccc3c(-c4nc(Nc5cc(C)n(C)n5)ncc4C)c[nH]c13)C2=O` [Example 363, (E)-3-(2-(3-(2-((1,5-dimethyl-1H-pyrazol-3-yl)amino)-5-methylpyrimidin-4-yl)-1H-indol-7-yl)-1-oxoisoindolin-4-yl)-N-methylacrylamide], the IC50 was under 10 nM. Take `Cc1cnc(Nc2cc(C)n(C)n2)nc1-c1c[nH]c2c(N3Cc4c(NC(=O)Cc5cccc(O)c5)cccc4C3=O)cccc12` [Example 304, N-(2-(3-(2-((1,5-dimethyl-1H-pyrazol-3-yl)amino)-5-methylpyrimidin-4-yl)-1H-indol-7-yl)-1-oxoisoindolin-4-yl)-2-(3-hydroxyphenyl)acetamide]: the IC50 is under 10 nM.

As to `Cc1cnc(Nc2cc(C)n(C)n2)nc1-c1c[nH]c2c(N3Cc4c(cccc4-c4ccc(N5CCOCC5)nc4)C3=O)cccc12` [Example 425, 2-(3-(2-((1,5-dimethyl-1H-pyrazol-3-yl)amino)-5-methylpyrimidin-4-yl)-1H-indol-7-yl)-4-(6-morpholinopyridin-3-yl)isoindolin-1-one], the IC50 was under 10 nM. For the molecule `Cc1cnc(Nc2cc(C)n(C)n2)nc1-c1c[nH]c2c(N3Cc4c(NC(=O)C5CCN(C)CC5)cccc4C3=O)cccc12` [Example 306, N-(2-(3-(2-((1,5-dimethyl-1H-pyrazol-3-yl)amino)-5-methylpyrimidin-4-yl)-1H-indol-7-yl)-1-oxoisoindolin-4-yl)-1-methylpiperidine-4-carboxamide], the half-maximal inhibitory concentration (IC50) is under 10 nM. On to `Cc1cnc(Nc2cc(C)n(C)n2)nc1-c1c[nH]c2c(N3Cc4c(cccc4-c4ccc(S(=O)(=O)N5CCCC5)cc4)C3=O)cccc12` [Example 409, 2-(3-(2-((1,5-dimethyl-1H-pyrazol-3-yl)amino)-5-methylpyrimidin-4-yl)-1H-indol-7-yl)-4-(4-(pyrrolidin-1-ylsulfonyl)phenyl)isoindolin-1-one], for which the IC50 was 10 to 100 nM. As to `COc1ccc(-c2cccc3c2CN(c2cccc4c(-c5nc(Nc6cc(C)n(C)n6)ncc5C)c[nH]c24)C3=O)cn1` [Example 406, 2-(3-(2-((1,5-dimethyl-1H-pyrazol-3-yl)amino)-5-methylpyrimidin-4-yl)-1H-indol-7-yl)-4-(6-methoxypyridin-3-yl)isoindolin-1-one], the half-inhibitory concentration (IC50) was in the range of 10 to 100 nM.

`Cc1cnc(Nc2cc(C)n(C)n2)nc1-c1c[nH]c2c(N3Cc4c(/C=C/C(=O)NC5CC5)cccc4C3=O)cccc12` [Example 365, (E)-N-cyclopropyl-3-(2-(3-(2-((1,5-dimethyl-1H-pyrazol-3-yl)amino)-5-methylpyrimidin-4-yl)-1H-indol-7-yl)-1-oxoisoindolin-4-yl)acrylamide]: the IC50 was under 10 nM. For the molecule `Cc1cc(-c2ccc(F)c3c2CN(c2cccc4c(-c5nc(Nc6cc(C)n(C)n6)ncc5C)c[nH]c24)C3=O)ccn1` [Example 454, 2-(3-(2-((1,5-dimethyl-1H-pyrazol-3-yl)amino)-5-methylpyrimidin-4-yl)-1H-indol-7-yl)-7-fluoro-4-(2-methylpyridin-4-yl)isoindolin-1-one], the IC50 is under 10 nM. As for `Cc1cnc(Nc2cc(C)n(C)n2)nc1-c1c[nH]c2c(N3Cc4c(cccc4-c4ccncc4N)C3=O)cccc12` [Example 447, 4-(3-aminopyridin-4-yl)-2-(3-(2-((1,5-dimethyl-1H-pyrazol-3-yl)amino)-5-methylpyrimidin-4-yl)-1H-indol-7-yl)isoindolin-1-one], the 50% inhibitory concentration (IC50) was under 10 nM. The figure for `Cc1cnc(Nc2cc(C)n(C)n2)nc1-c1c[nH]c2c(N3Cc4c(-c5ccnc(F)c5)ccc(F)c4C3=O)cccc12` [Example 485, 2-(3-(2-((1,5-dimethyl-1H-pyrazol-3-yl)amino)-5-methylpyrimidin-4-yl)-1H-indol-7-yl)-7-fluoro-4-(2-fluoropyridin-4-yl)isoindolin-1-one] is under 10 nM; for `Cc1cnc(Nc2cc(C)n(C)n2)nc1-c1c[nH]c2c(N3Cc4c(NC(=O)C5CC=CCC5)cccc4C3=O)cccc12` (centres unmarked) [Example 309, N-(2-(3-(2-((1,5-dimethyl-1H-pyrazol-3-yl)amino)-5-methylpyrimidin-4-yl)-1H-indol-7-yl)-1-oxoisoindolin-4-yl)cyclohex-3-ene-1-carboxamide] it is 10 to 100 nM; for `Cc1cnc(Nc2cc(C)n(C)n2)nc1-c1c[nH]c2c(N3Cc4c(cccc4-c4cn[nH]c4)C3=O)cccc12` [Example 390, 2-(3-(2-((1,5-dimethyl-1H-pyrazol-3-yl)amino)-5-methylpyrimidin-4-yl)-1H-indol-7-yl)-4-(1H-pyrazol-4-yl)isoindolin-1-one] it is under 10 nM. Regarding `Cc1cnc(Nc2cc(C)n(C)n2)nc1-c1c[nH]c2c(N3Cc4c(Br)ccnc4C3=O)cccc12` [Example 286, 4-bromo-6-(3-(2-((1,5-dimethyl-1H-pyrazol-3-yl)amino)-5-methylpyrimidin-4-yl)-1H-indol-7-yl)-5,6-dihydro-7H-pyrrolo[3,4-b]pyridin-7-one], the concentration for half-maximal inhibition (IC50) is under 10 nM. Turning to `Cc1cnc(Nc2cc(C)n(C)n2)nc1-c1c[nH]c2c(NC(=O)CN3CC[C@@H](C(=O)N4CCSCC4)C3)cccc12` [Example 68, (R)-N-(3-(2-((1,5-dimethyl-1H-pyrazol-3-yl)amino)-5-methylpyrimidin-4-yl)-1H-indol-7-yl)-2-(3-(thiomorpholine-4-carbonyl)pyrrolidin-1-yl)acetamide], the half-maximal inhibitory concentration (IC50) was in the range of 10 to 100 nM. As for `Cc1cnc(Nc2cc(C)n(C)n2)nc1-c1c[nH]c2c(NC(=O)CN3CC[C@H](Oc4ccc(F)cc4F)C3)cccc12` [Example 83, (S)-2-(3-(2,4-difluorophenoxy)pyrrolidin-1-yl)-N-(3-(2-((1,5-dimethyl-1H-pyrazol-3-yl)amino)-5-methylpyrimidin-4-yl)-1H-indol-7-yl)acetamide], the half-maximal inhibitory concentration (IC50) fell in the range of 10 to 100 nM.

For the molecule `Cc1cnc(Nc2cc(C)n(C)n2)nc1-c1c[nH]c2c(NC(=O)CN3CC[C@H](Oc4cc(N5CCN(C)CC5)ncn4)C3)cccc12` [Example 165, (S)-N-(3-(2-((1,5-dimethyl-1H-pyrazol-3-yl)amino)-5-methylpyrimidin-4-yl)-1H-indol-7-yl)-2-(3-((6-(4-methylpiperazin-1-yl)pyrimidin-4-yl)oxy)pyrrolidin-1-yl)acetamide], the IC50 is under 10 nM. The value for `Cc1cnc(Nc2cc(C)n(C)n2)nc1-c1c[nH]c2c(NC(=O)CN3CC[C@H](Oc4ncc(C(=O)NC5CC5)o4)C3)cccc12` [Example 126, (S)-N-cyclopropyl-2-((1-(2-((3-(2-((1,5-dimethyl-1H-pyrazol-3-yl)amino)-5-methylpyrimidin-4-yl)-1H-indol-7-yl)amino)-2-oxoethyl)pyrrolidin-3-yl)oxy)oxazole-5-carboxamide] was 10 to 100 nM; that for `Cc1cnc(Nc2cc(C)n(C)n2)nc1-c1c[nH]c2c(N3Cc4c(cccc4-c4ccc5ccncc5c4)C3=O)cccc12` [Example 448, 2-(3-(2-((1,5-dimethyl-1H-pyrazol-3-yl)amino)-5-methylpyrimidin-4-yl)-1H-indol-7-yl)-4-(isoquinolin-7-yl)isoindolin-1-one] was under 10 nM. On to `Cc1cnc(Nc2cc(C)n(C)n2)nc1-c1c[nH]c2c(N3Cc4c(NC(=O)C5CCC(C)CC5)cccc4C3=O)cccc12` (centres unmarked) [Example 303, N-(2-(3-(2-((1,5-dimethyl-1H-pyrazol-3-yl)amino)-5-methylpyrimidin-4-yl)-1H-indol-7-yl)-1-oxoisoindolin-4-yl)-4-methylcyclohexane-1-carboxamide], for which the IC50 is under 10 nM. As for `Cc1cnc(Nc2cc(C)n(C)n2)nc1-c1c[nH]c2c(NC(=O)CN3CC[C@H](Oc4cc(-c5cc(Cl)ccc5F)nc(N)n4)C3)cccc12` [Example 98, (S)-2-(3-((2-amino-6-(5-chloro-2-fluorophenyl)pyrimidin-4-yl)oxy)pyrrolidin-1-yl)-N-(3-(2-((1,5-dimethyl-1H-pyrazol-3-yl)amino)-5-methylpyrimidin-4-yl)-1H-indol-7-yl)acetamide], the IC50 lay in the range of 100 to 1000 nM.

Turning to `Cc1cnc(Nc2cc(C)n(C)n2)nc1-c1c[nH]c2c(N3Cc4cccc(F)c4C3=O)cccc12` [Example 282, 2-(3-(2-((1,5-dimethyl-1H-pyrazol-3-yl)amino)-5-methylpyrimidin-4-yl)-1H-indol-7-yl)-7-fluoroisoindolin-1-one], the IC50 was under 10 nM.

The IC50 is the concentration that gives 50% inhibition.
